Values quoted from earlier work as cited in patent US20040126318A1, “Methods, formulations and kits for monitoring and diagnosing gastric emptying and gastroparesis, and formulations for determining gastrointestinal motility” (priority 2002, published 2004).

SMILES: CCN(CC)CCNC(=O)c1cc(Cl)c(N)cc1OC [Metochlopramide]
- patients with serious side effects (drowsiness, nightmares, depression, Parkinsonism) (patients treated with this drug): up to 50%

SMILES: COc1cc(N)c(Cl)cc1C(=O)NC1CCN(CCCOc2ccc(F)cc2)CC1OC (centres unmarked) [cisapride]
- cardiac side effects (reason for removal from the market by the FDA): produced severe and sometimes fatal arrhythmias
